Assay results published in patent US20260256909A1, “COMBINATION OF A BTN3A ACTIVATING ANTIBODY, A BCL2 INHIBITOR AND HYPOMETHYLATING AGENT FOR USE IN TREATING CANCER” (Imcheck Therapeutics, priority 2022, published 2026).

Key:
[1] = test system: KG1a AML cells; assay: Killing of KG1a AML cells in co-culture with HD-PBMC (flow cytometry); assay type: cell-based, human; details: for effect on Vγ9Vδ2 T cell killing activity compared to hIgG1S conditions: upon activation with ICT01, single agent, KG1a co-culture with HD-PBMC
Procedure: A) Sensitivity of KG1a cell line to Venetoclax, 5-Azacytidine or the combination. […] N=2 experiments. B) Mean±SEM relative number of Live KG1a AML cells monitored by flow cytometry after 3 days of co-culture with HD-PBMC (E:T ratio 25:1) treated with ICT01 (black) or its isotype control (hIgG1S, light grey) at 0.1 or 1 μg/mL. N=6, each dot represents one healthy donor. C) Schematic representation of treatment schedule for killing of KG1a AML cells by HD-PBMC. D) Relative number of Live KG1a AML cells (Mean±SEM) (left) and Frequency of Live KG1a AML cell relative to no Venetoclax or 5-Azacytidine treatment (Mean±SEM) (right) after 3 days of co-culture with HD-PBMC in presence of ICT01 (black) or its isotype control (hIgG1S, light grey) and treatment with Venetoclax, 5-Azacytidine or the combination. N=6, each dot represents one healthy donor, * p<0.05, Wilcoxon test.
KG1a cells were co-cultured with HD-PBMC at ratio 5:1 in presence of m20.1 or isotype control (0.1 μg/mL). After 6 hrs, indicated concentrations of Venetoclax, 5-Azacytidine or the combination were added to the culture. Relative number of live KG1a was monitored after 48 hrs by flow cytometry. […] N=6, each dot represents one healthy donor, * p<0.05, ** p<0.01, *** p<0.001, **** p<0.0001, 2 way ANOVA.
KG1a or MOLM14 AML cell lines were co-cultured with HD-PBMC at ratio 5:1 in presence of ICT01 or isotype control (0.1 μg/mL). After 6 hrs, indicated concentrations of ABT-737, Navitoclax or MIK665 were added to the culture. A) Relative numbers of live KG1a cells (Mean±SEM) after 2 days of co-culture with HD-PBMC in presence of ICT01 (black) or its isotype control hIgG1S (light grey) and treatment with indicated concentration of ABT-737. B) Relative numbers of live KG1a cells (Mean±SEM) after 2 days of co-culture with HD-PBMC in presence of ICT01 (black) or its isotype control hIgG1S (light grey) and treatment with indicated concentration of Navitoclax. C) Relative numbers of live MOLM14 cells (Mean±SEM) after 2 days of co-culture with HD-PBMC in presence of ICT01 (black) or its isotype control hIgG1S (light grey) and treatment with indicated concentration of MIK665. N=6 HD, each dot represents one healthy donor, * p<0.05, 2 way ANOVA.
The effect of Venetoclax and 5-Azacytidine on anti-BTN3A antibodies-induced killing of AML cell lines by Vγ9Vδ2 T cells was assessed by measuring the relative number of surviving target cells in a HD-PBMC-AML cell co-culture using flow cytometry.
Then, KG1a AML cells were stained with CellTrace CFSE Proliferation dye (ThermoFisher) to allow for specific detection by flow cytometry, counted, put into a co-culture with thawed HD-PBMC and treated with the anti-BTN3A mAbs ICT01 or m20.1 or their respective isotype controls (hIgG1S or mIgG1) in PBMC medium (RPMI 1640 Medium supplemented with 10% Fetal Bovine Serum (FBS) and 1 mM Sodium Pyruvate). On day one of culture, increasing concentrations of Venetoclax (0-0.4 μM), 5-Azacytidine (0-0.4 μM) or the combination were added. Cells were harvested on day 3 of co-culture, centrifuged at 1800 rpm for 5 minutes and then incubated 10 minutes at room temperature (RT) with 25 μl of FcR blocking reagent (Miltenyi Biotec) before adding 25 μL of the following antibody mix prepared in PBS+2% FBS+2 mM EDTA (FACS buffer): anti-CD56-BV421, CD19-BV421, CD14-BV785, Tyb-PE and CD3-AF700 antibodies for the identification of immune subsets, and a viability marker (LIVE/DEAD™ Fixable Dead Cell Stain) was added to distinguish live and dead cells. Cells were incubated 20 minutes at room temperature, washed once in FACS buffer and once in AnnexinV staining buffer. An AnnexinV-APC probe mixed with CountBright Absolute Counting Beads (Invitrogen) was added to determine apoptosis and relative cell numbers, followed by 15 minutes incubation at RT before flow cytometry analysis. […]

[2] = test system: Vγ9Vδ2 T cells; assay: ICT01-induced IFNγ production by Vγ9Vδ2 T cells in HD-PBMC (intracellular staining); assay type: cell-based, human; details: for effect on ICT01-induced IFNγ production by Vγ9Vδ2 T cells: single agent, independent of IL2
Procedure: To evaluate the effect of Venetoclax and 5-Azacytidine on cytokine production, freshly isolated human PBMC from healthy donors (HD, n=6) were cultured in PBMC medium (RPMI 1640 Medium supplemented with 10% Fetal Bovine Serum (FBS), 1% Penicillin/Streptomycin and 1 mM Sodium Pyruvate) and treated with ICT01 or its isotype control (hIgG1S) used at 1 μg/mL in the presence or absence of increasing concentrations of Venetoclax (0-0.1 μM), 5-Azacytidine (0-0.4 μM) or the combination. Half of the cells were additionally treated with 50 IU/mL IL2. Golgi Stop was added after 6-8 hours of co-culture and cells were harvested 16 h later, centrifuged at 1800 rpm for 5 minutes and then incubated 10 minutes at room temperature (RT) with 25 μl of FcR blocking reagent (Miltenyi Biotec) before adding 25 μL of the following antibody mix prepared in PBS+2% FBS+2 mM EDTA (FACS buffer): anti-CD4-BV650, Vγ9-FITC, CD3-PE-CF594, CD56-PE-Vio770 and CD8-AF700 antibodies for the identification of immune subsets, and a viability marker (LIVE/DEAD™ Fixable Dead Cell Stain) was added to distinguish live from dead cells. After 20 minutes, 100 μL of CytoFix solution (BD Bioscience) was added, and cells were incubated for 20 minutes at 4° C. 100 μL of Perm/Wash (BD Bioscience) were added, cells centrifuged and washed once in 200 μL Perm/Wash. After washing, cells were stained with anti-IFNγ-APC antibody for 30 minutes at 4° C., washed twice with Perm/Wash, and analyzed by flow cytometry.

| Compound | effect on KG1a survival ([1]; hIgG1S conditions, co-culture with HD-PBMC, day 3) | effect on KG1a survival ([1]; mIgG1 conditions, HD-PBMC ratio 5:1, 48 hrs) | effect on Vγ9Vδ2 T cell killing activity compared to hIgG1S conditions [1] | effect on ICT01-induced IFNγ production by Vγ9Vδ2 T cells [2] | average reduction of live KG1a cell numbers compared to hIgG1S conditions ([1]; 3 days co-culture with HD-PBMC (E:T ratio 25:1), large variability within PBMC donors) | KG1a cell death as compared to control condition ([1]; ICT01 0.1 μg/mL, HD-PBMC ratio 5:1, 2 days (FIG. 8a)) | IFNγ production by Vγ9Vδ2 T cells ([2]; HD-PBMC activated with ICT01 (1 μg/mL) in presence of IL2 (50 IU/mL)) | IFNγ production by Vγ9Vδ2 T cells ([2]; HD-PBMC activated with ICT01 alone (1 μg/mL), no IL2) | reduction of KG1a relative numbers ([1]; hIgG1S-treatment conditions, highest concentration, co-culture with HD-PBMC, day 3) | reduction of KG1a relative numbers ([1]; mIgG1 conditions, Venetoclax 0.1 μM alone or combined with 0.4 μM 5-Azacytidine, HD-PBMC ratio 5:1, 48 hrs) |
| --- | --- | --- | --- | --- | --- | --- | --- | --- | --- | --- |
| Nc1ncn([C@@H]2O[C@H](CO)[C@@H](O)[C@H]2O)c(=O)n1 [5-Azacytidine, 4-amino-1-[(2R,3R,4S,5R)3,4-dihydroxy-5-(hydroxymethyl)oxolan-2-yl]-1,3,5-triazin-2-one] | no effect | no effect | slight increasing effects | no effect | – | – | – | – | – | – |
| ICT01: humanized BTN3A activating antibody of mAb 7.2, heavy chain SEQ ID NO: 4, light chain SEQ ID NO: 6, silent IgG1 L247F/L248E/P350S | – | – | – | – | ~ 20% | ~ 21% | 89.1% | 30.4% | – | – |
| CC1(C)CCC(CN2CCN(c3ccc(C(=O)NS(=O)(=O)c4ccc(NCC5CCOCC5)c([N+](=O)[O-])c4)c(Oc4cnc5[nH]ccc5c4)c3)CC2)=C(c2ccc(Cl)cc2)C1 [Venetoclax, 4-[4-[[2-(4-chlorophenyl)-4,4-dimethylcyclohexen-1-yl]methyl]piperazin-1-yl]-N-[3-nitro-4-(oxan-4-ylmethylamino)phenyl]sulfonyl-2-(1H-pyrrolo[2,3-b]pyridin-5-yloxy)benzamide] | – | – | slight increasing effects | no effect | – | – | – | – | ~ 28% | 41% |
